What all share (assay type): biochemical
Test [1] addresses JAK1 (Homo sapiens (Human), UniProt P23458). In words: In vitro JAK kinase assay (TR-FRET), JAK1. Particulars: catalytic domain aa 850-1154, GST-fusion; ATP 3 μM; peptide 60 nM; 30 minutes at room temperature. Put shortly:
(§1)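 Each human JAK enzyme assayed on biotinylated poly(GT) peptide substrate, reaction 30 min at room temperature. Phosphorylation detected by TR-FRET after a 3 h detection incubation.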

Test [2] has as its target JAK2 (Homo sapiens (Human), UniProt O60674). Put plainly: In vitro JAK kinase assay (TR-FRET), JAK2. Particulars: catalytic domain aa 826-1132, GST-fusion; ATP 0.2 μM; peptide 20 nM; 30 minutes at room temperature. The essentials: as §1
For test [3], the target named is JAK3 (Homo sapiens (Human), UniProt P52333). Put plainly: In vitro JAK kinase assay (TR-FRET), JAK3. To be noted: catalytic domain aa 795-1124, GST-fusion; ATP 0.6 μM; peptide 140 nM; 30 minutes at room temperature. The essentials: as §1
JAK3, sequence (P52333 795-1124): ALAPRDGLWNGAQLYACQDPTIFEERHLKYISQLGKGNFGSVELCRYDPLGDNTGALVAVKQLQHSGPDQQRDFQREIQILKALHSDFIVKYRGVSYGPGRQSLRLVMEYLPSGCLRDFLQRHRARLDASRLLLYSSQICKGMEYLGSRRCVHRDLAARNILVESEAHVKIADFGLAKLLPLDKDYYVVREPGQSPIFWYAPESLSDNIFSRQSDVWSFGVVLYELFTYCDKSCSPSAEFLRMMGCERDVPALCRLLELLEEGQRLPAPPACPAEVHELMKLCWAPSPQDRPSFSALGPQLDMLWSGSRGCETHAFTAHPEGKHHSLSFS

JAK1, sequence (P23458 850-1154): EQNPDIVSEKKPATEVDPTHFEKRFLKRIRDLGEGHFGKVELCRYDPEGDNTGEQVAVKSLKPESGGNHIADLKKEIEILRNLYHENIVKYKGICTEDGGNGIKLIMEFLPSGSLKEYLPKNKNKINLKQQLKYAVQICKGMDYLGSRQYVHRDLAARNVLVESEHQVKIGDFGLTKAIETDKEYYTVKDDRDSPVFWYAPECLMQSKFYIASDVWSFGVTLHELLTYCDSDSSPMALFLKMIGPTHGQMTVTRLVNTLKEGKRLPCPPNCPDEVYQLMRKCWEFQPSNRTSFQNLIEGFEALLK
JAK2, sequence (O60674 826-1132): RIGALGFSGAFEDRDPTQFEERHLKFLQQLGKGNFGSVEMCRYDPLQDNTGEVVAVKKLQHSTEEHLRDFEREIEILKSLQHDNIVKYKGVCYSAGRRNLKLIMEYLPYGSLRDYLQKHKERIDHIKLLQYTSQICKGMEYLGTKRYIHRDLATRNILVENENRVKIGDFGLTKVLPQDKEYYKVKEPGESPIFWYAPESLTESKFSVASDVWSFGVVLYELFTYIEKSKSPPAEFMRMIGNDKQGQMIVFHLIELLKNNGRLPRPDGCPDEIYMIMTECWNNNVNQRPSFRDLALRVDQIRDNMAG

Turning to `Cc1cc(-c2cc(N[C@@H]3CCCN(C(=O)CC#N)C3)nc(-c3cnn4ccccc34)n2)cc(C)n1` [Example 102, 3-((3R)-3-{[6-(2,6-Dimethylpyridin-4-yl)-2-pyrazolo[1,5-a]pyridin-3-ylpyrimidin-4-yl]amino}piperidin-1-yl)-3-oxopropanenitrile], the IC50 in test [1] amounted to 1 nM; in test [2], 2 nM; in test [3] it was 5 nM.
Take `N#CCC(=O)N1CCC[C@@H](Nc2cc(OCCO)nc(-c3cnn4ccccc34)n2)C1` [Example 103, 3-((3R)-3-{[6-(2-Hydroxyethoxy)-2-pyrazolo[1,5-a]pyridin-3-ylpyrimidin-4-yl]amino}piperidin-1-yl)-3-oxopropanenitrile]: the IC50 in test [1], in test [2] and in test [3] was 1 nM throughout.
On to `N#Cc1cnc(N2CCC[C@@H](Nc3cc(OCCO)nc(-c4cnn5ccccc45)n3)C2)cn1` [Example 104, 5-((3R)-3-{[6-(2-Hydroxyethoxy)-2-pyrazolo[1,5-a]pyridin-3-ylpyrimidin-4-yl]amino}piperidin-1-yl)pyrazine-2-carbonitrile], for which the values for the IC50 in test [1], in test [2] and in test [3] were 4 nM, 3 nM and 1 nM, respectively.
Regarding `O=C(CO)N1CCC[C@@H](Nc2cc(-c3cncc(O)c3)nc(-c3cnn4ccccc34)n2)C1` [Example 105, 5-(6-{[(3R)-1-Glycoloylpiperidin-3-yl]amino}-2-pyrazolo[1,5-a]pyridin-3-ylpyrimidin-4-yl)pyridin-3-ol], the IC50 worked out at 2 nM in test [1], 5 nM in test [2] and 5 nM in test [3].
Regarding `N#CCC(=O)N1CCC[C@@H](Nc2cc(-c3cncc(O)c3)nc(-c3cnn4ccccc34)n2)C1` [Example 106, 3-((3R)-3-{[6-(5-Hydroxypyridin-3-yl)-2-pyrazolo[1,5-a]pyridin-3-ylpyrimidin-4-yl]amino}piperidin-1-yl)-3-oxopropanenitrile], the IC50 in test [1], in test [2] and in test [3] was 1 nM in each case.
As for “(5-{(3R)-3-[(5-fluoro-6-methoxy-2-pyrazolo[1,5-a]pyridin-3-ylpyrimidin-4-yl)amino]piperidin-1-yl}pyrazin-2-yl)methanol [Example 55]”, the IC50 in test [1] is 170 nM; in test [2], 12 nM; in test [3], 33 nM.
Regarding “[Trans-4-({6-[2-(dimethylamino)ethoxy]-5-fluoro-2-pyrazolo[1,5-a]pyridin-3-ylpyrimidin-4-yl}amino)cyclohexyl]acetonitrile [Example 10]”, the IC50 in test [1] was 32 nM; in test [2], 0.5 nM; in test [3], 0.7 nM.

Source of the values: US10759793B2, “2-(pyrazolopyridin-3-yl)pyrimidine derivatives as JAK inhibitors” (ALMIRALL, S.A., priority 2015, dated 2020).
